From patent US8551966B2, “Chemical compounds” (priority 2011, dated 2013) come the findings set out here.

Like-named read-outs stand apart in the source and are kept apart here.

Assay [1] deals with recombinant vaccinia virus strain WR (VACV-WR) 'v3' expressing firefly luciferase, in RK13 cells. The assay is described as follows: microbe, parasite or virus in culture. In kind it is cell-based. The settings on record: for activity at 10 µM: Orthopoxvirus vaccinia, RK-13, 2 h, read-out: VV % activity at 10 μM (a).
Assay [2] concerns wildtype measles virus strain WTFb in B95a marmoset B lymphocytes. The assay is described as follows: Measles syncytium reduction assay. In kind it is cell-based. The settings on record: for Measles IC100/μM (b): concentration giving total suppression of syncytia formation, B95a cells, 50 syncytium forming units per well; for potency with respect to measles virus: statement in words on Table I data.

The next assay has as its system VACV-WR in BSC-1 cells. The assay is described as follows: microbe, parasite or virus in culture. The settings on record: read-out: VV plaque size IC50 μM (c). In kind it is cell-based, vaccinia virus.

Turning to `CCCCCCCCCCOCCCCc1cc2cn([C@@H]3CC[C@H](CO)O3)c(=O)nc2o1` [Cf 3231, 3-(2′,3′-dideoxy-ribo-β-L-furanosyl)-6-decyloxybutylfuro[2,3-d]pyrimidin-2(3H)-one], the activity at 10 µM in assay [1] was 26%.

Broadly, the IC50 is the concentration that inhibits the measured activity by half. For the molecule `CCCCCOCCCCCCCCCc1cc2cn([C@@H]3CC[C@H](CO)O3)c(=O)nc2o1` [Cf 3208, 3-(2′,3′-dideoxy-ribo-β-L-furanosyl)-6-pentyloxynonylfuro[2,3-d]pyrimidin-2(3H)-one], in assay [1], the “potency with respect to vaccinia virus compared to comparative compound Cf2095” value is on record as “greatly enhanced potency” and the activity at 10 µM was found to be 24%. In addition, in assay [2], the “Measles IC100/μM (b)” value is 1 to 5 µM and the “potency with respect to measles virus” value was “significant potency”. In addition, the half-maximal inhibitory concentration (IC50) in the assay with VACV-WR in BSC-1 cells (Orthopoxvirus vaccinia, BSC-1, 72 h) came to 0.1 µM.

`CCCCCCCCCCCCc1cc2cn([C@@H]3CC[C@H](CO)O3)c(=O)nc2o1` [Cf 3156, 3-(2′,3′-dideoxy-ribo-β-L-furanosyl)-6-dodecylfuro[2,3-d]-pyrimidin-2(3H)-one]: in assay [1], the activity at 10 µM worked out at 65%.

As for `CCCCCCCc1cc2cn([C@@H]3CC[C@H](CO)O3)c(=O)nc2o1` [Cf 3174, 3-(2′,3′-dideoxy-ribo-β-L-furanosyl)-6-septylfuro[2,3-d]pyrimidin-2(3H)-one], the activity at 10 µM in assay [1] stood at 41%.

As to `CCCCCCOCCCCCCCCc1cc2cn([C@@H]3CC[C@H](CO)O3)c(=O)nc2o1` [Cf 3230, 3-(2′,3′-dideoxy-ribo-β-L-furanosyl)-6-hexyloxyoctylfuro[2,3-d]pyrimidin-2(3H)-one], the activity at 10 µM in assay [1] came out at 29%.

With `CCCCCc1ccc(-c2cc3cn([C@@H]4CC[C@H](CO)O4)c(=O)nc3o2)cc1` [Cf 3177, 3-(2′,3′-dideoxy-ribo-D-L-furanosyl)-6-(4-n-pentylphenyl) [2,3-d]pyrimidin-2(3H)-one], in assay [1], the activity at 10 µM is 47%.

`CCCCCCOCCCCCCCCCc1cc2cn([C@@H]3CC[C@H](CO)O3)c(=O)nc2o1` [Cf 3209, 3-(2′,3′-dideoxy-ribo-β-L-furanosyl)-6-hexyloxynonylfuro[2,3-d]pyrimidin-2(3H)-one]: the activity at 10 µM in assay [1] is 46%.

With `CCCCCOCCCCCCCCCc1cc2cn([C@H]3CC[C@@H](CO)O3)c(=O)nc2o1` [Cf 2095, reference compound], in assay [1], the “VV % activity at 10 μM (a)” value was 75%. Further, in assay [2], the “Measles IC100/μM (b)” value is “Inactive” and the “potency with respect to measles virus” value was “inactive”. Also, the IC50 in the assay on VACV-WR in BSC-1 cells was found to be 1.5 µM.

`CCCCCOCCCCCCCCCc1cc2cn([C@@H]3CC[C@H](CO)O3)c(=O)nc2[nH]1` [Cf 3253, 3-(2′,3′-dideoxy-ribo-β-L-furanosyl)-6-pentyloxynonyl-pyrrolo[2,3-d]pyrimidin-2(3H)-one]: the activity at 10 µM in assay [1] stood at 52%.

As to `CCCCOCCCCCCCCCc1cc2cn([C@@H]3CC[C@H](CO)O3)c(=O)nc2o1` [Cf 3207, 3-(2′,3′-dideoxy-ribo-β-L-furanosyl)-6-butyloxynonylfuro[2,3-d]pyrimidin-2(3H)-one], the activity at 10 µM in assay [1] came out at 29%.

For `CCCCCCCCCCCCCOCc1cc2cn([C@@H]3CC[C@H](CO)O3)c(=O)nc2o1` [Cf 3232, 3-(2′,3′-dideoxy-ribo-β-L-furanosyl)-6-tridecyloxymethylfuro[2,3-d]pyrimidin-2(3H)-one], the activity at 10 µM in assay [1] was found to be 45%. Also, in assay [2], the “Measles IC100/μM (b)” value is 1 to 5 µM and the “potency with respect to measles virus” value is reported as “significant potency”.

Take `CCCCCCCCc1cc2cn([C@@H]3CC[C@H](CO)O3)c(=O)nc2o1` [Cf 3154, 3-(2′,3′-dideoxy-ribo-β-L-furanosyl)-6-octylfuro[2,3-d]pyrimidin-2(3H)-one]: in assay [1], the “potency with respect to vaccinia virus compared to comparative compound Cf2095” value is recorded as “greatly enhanced potency” and the activity at 10 µM was 23%.

With `CCOCCCCCCCCCc1cc2cn([C@@H]3CC[C@H](CO)O3)c(=O)nc2o1` [Cf 3210, 3-(2′,3′-dideoxy-ribo-O-L-furanosyl)-6-ethyloxynonylfuro[2,3-d]pyrimidin 2(3H)-one], in assay [1], the activity at 10 µM is 72%.

Turning to `CCCCCOCCCCCCCCCc1cc2cn([C@@H]3CC[C@H](CO)O3)c(=O)nc2n1C` [Cf 3242, 3-(2′,3′-dideoxy-ribo-β-L-furanosyl)-6-pentyloxynonyl-N-methyl-pyrrolo[2,3-d]pyrimidin-2(3H)-one], in assay [1], the “potency with respect to vaccinia virus compared to comparative compound Cf2095” value is “greatly enhanced potency” and the activity at 10 µM was 15%. Moreover, the “Measles IC100/μM (b)” value in assay [2] lay in the range of 5 to 10 µM.

`COCCCCCCCCCCCCCc1cc2cn([C@@H]3CC[C@H](CO)O3)c(=O)nc2o1` [Cf 3254, 3-(2′,3′-dideoxy-ribo-β-L-furanosyl)-6-methyloxytridecylfuro[2,3-d]pyrimidin-2(3H)-one]: in assay [1], the activity at 10 µM is 59%.

With `CCCCCCCCCc1cc2cn([C@@H]3CC[C@H](CO)O3)c(=O)nc2o1` [Cf 3175, 3-(2′,3′-dideoxy-ribo+L-furanosyl)-6-nonylfuro[2,3-d]pyrimidin-2(3H)-one], in assay [1], the “potency with respect to vaccinia virus compared to comparative compound Cf2095” value is “greatly enhanced potency” and the activity at 10 µM worked out at 24%. The “Measles IC100/μM (b)” value in assay [2] lay within 5 to 10 µM.

As for `CCCOCCCCCCCCCc1cc2cn([C@@H]3CC[C@H](CO)O3)c(=O)nc2o1` [Cf 3204, 3-(2′,3′-dideoxy-ribo-β-L-furanosyl)-6-propyloxynonylfuro[2,3-d]pyrimidin-2(3H)-one], the activity at 10 µM in assay [1] was 41%.

With `CCCCCCc1cc2cn([C@@H]3CC[C@H](CO)O3)c(=O)nc2o1` [Cf 3153, 3-(2′,3′-dideoxy-ribo-β-L-furanosyl)-6-hexylfuro[2,3-d]pyrimidin-2(3H)-one], in assay [1], the activity at 10 µM amounted to 50%.

As to `CCCCc1ccc(-c2cc3cn([C@@H]4CC[C@H](CO)O4)c(=O)nc3o2)cc1` [Cf 3176, 3-(2′,3′-dideoxy-ribo-β-L-furanosyl)-6-(4-n-butylphenyl)[2,3-d]pyrimidin-2(3H)-one], in assay [1], the activity at 10 µM was 44%.

`CCCCCCCCCCc1cc2cn([C@@H]3CC[C@H](CO)O3)c(=O)nc2o1` [Cf 3155, 3-(2′,3′-dideoxy-ribo-β-Lfuranosyl)-6-decylfuro[2,3-d]pyrimidin-2(3H)-one]: in assay [1], the “potency with respect to vaccinia virus compared to comparative compound Cf2095” value was “greatly enhanced potency” and the activity at 10 µM was found to be 24%.
